ChEMBL document CHEMBL1681761, “Synthesis, biological evaluation and molecular docking studies of stellatin derivatives as cyclooxygenase (COX-1, COX-2) inhibitors and anti-inflammatory agents” (Bioorg Med Chem Lett, 2011)

Legend:
Mus musculus [1] = experiment: Antiinflammatory activity against TPA-induced mouse edema model assessed as reduction in ear edema at 0.5 mg/ear; assay type: functional
[2] = molecular target: T1, Prostaglandin G/H synthase 1 (Homo sapiens, UniProt P23219); experiment: Inhibition of COX1
T1 sequence (P23219 whole entry): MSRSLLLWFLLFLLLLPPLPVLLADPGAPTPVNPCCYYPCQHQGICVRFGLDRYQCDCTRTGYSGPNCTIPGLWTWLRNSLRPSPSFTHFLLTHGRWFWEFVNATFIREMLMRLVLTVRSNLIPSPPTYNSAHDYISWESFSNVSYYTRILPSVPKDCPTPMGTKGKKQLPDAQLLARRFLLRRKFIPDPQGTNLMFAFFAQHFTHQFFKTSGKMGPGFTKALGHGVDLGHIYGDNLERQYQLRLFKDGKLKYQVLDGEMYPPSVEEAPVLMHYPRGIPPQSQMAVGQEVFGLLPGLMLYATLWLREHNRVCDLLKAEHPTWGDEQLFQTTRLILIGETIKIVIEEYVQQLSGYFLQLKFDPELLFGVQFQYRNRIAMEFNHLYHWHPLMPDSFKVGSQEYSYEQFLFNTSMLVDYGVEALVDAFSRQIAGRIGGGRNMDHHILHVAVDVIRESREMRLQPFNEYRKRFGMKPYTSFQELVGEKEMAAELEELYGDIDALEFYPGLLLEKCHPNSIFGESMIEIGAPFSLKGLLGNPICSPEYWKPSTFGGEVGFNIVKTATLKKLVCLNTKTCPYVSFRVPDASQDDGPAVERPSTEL

[3] = molecular target: T2, Prostaglandin G/H synthase 2 (Homo sapiens) (UniProt P35354); conditions: at 30 µM
T2 sequence (whole entry): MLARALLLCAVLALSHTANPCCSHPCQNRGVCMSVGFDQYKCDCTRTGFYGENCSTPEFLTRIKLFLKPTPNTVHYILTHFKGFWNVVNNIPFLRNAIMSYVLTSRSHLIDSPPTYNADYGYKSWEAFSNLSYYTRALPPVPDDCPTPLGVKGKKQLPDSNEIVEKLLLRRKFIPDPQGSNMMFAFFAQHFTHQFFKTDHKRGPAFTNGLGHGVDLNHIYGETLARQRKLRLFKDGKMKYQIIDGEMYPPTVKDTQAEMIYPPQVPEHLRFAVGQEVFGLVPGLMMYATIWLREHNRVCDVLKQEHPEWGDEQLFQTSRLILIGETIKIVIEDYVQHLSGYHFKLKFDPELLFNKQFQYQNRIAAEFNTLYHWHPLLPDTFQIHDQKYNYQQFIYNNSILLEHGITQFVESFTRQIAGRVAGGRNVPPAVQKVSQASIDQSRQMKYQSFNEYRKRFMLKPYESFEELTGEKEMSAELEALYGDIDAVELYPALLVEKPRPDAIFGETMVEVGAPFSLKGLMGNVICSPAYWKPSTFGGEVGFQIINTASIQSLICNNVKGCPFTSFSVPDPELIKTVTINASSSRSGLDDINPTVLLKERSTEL
Description: Inhibition of COX2 at 30 uM

[4] = molecular target: T3, Prostaglandin G/H synthase 2 (Homo sapiens, UniProt P35354)
T3 sequence (P35354 whole entry): T2 sequence (whole entry)

[5] = molecular target: T1, Prostaglandin G/H synthase 1; conditions: at 30 µM
Description: Inhibition of COX1 at 30 uM

Mus musculus [6] = experiment: Antiinflammatory activity against TPA-induced mouse edema model assessed as ear thickness at 0.5 mg/ear (Rbv = 0.270 +/- 0.008 mm); assay type: functional

Compound	inhibition (INH) (Mus musculus [1]) [%]	IC50 [2] [µM]	inhibition [3] [%]	IC50 [4] [µM]	inhibition [5] [%]	Activity (Mus musculus [6]) [mm]
CC(C)=CCOc1cc2oc(C)cc(=O)c2c(O)c1OCC=C(C)C	85.18	17.2	91.7	10.3	82.3	0.04
COc1cc2oc(C)cc(=O)c2c(O)c1OCC=C(C)C	77.77	18.7	83.2	15.5	80.7	0.06
CCOc1c(OC)c(OC)cc2oc(C)cc(=O)c12			49.8		54.9	
COc1c(OC)c(O)c2c(=O)cc(C)oc2c1Cl	61.11	27.2	50.3	43.4	66.8	0.105
COc1cc(O)c2c(=O)cc(C)oc2c1 [EUGENIN]	73.2	17.8	78.5	20.1	85.6	0.071
COc1cc2oc(C)cc(=O)c2c(OCC=C(C)C)c1OC	77.16	22.9	82.5	17.6	70.1	0.061
C=CCOc1cc2oc(C)cc(=O)c2c(O)c1OCC=C	80.24	21.6	89.5	13.5	74.1	0.053
Cc1cc(=O)c2c(O)c(O)c(O)cc2o1	90.74	14.4	94.1	8.87	87.5	0.025
COc1cc2oc(C)cc(=O)c2c(OC)c1OC			47.4		70.3	
C=CCOc1c(OC)c(OC)cc2oc(C)cc(=O)c12	66.66	38.3	73.9	21.2	56.2	0.09
COc1c(OC)c(O)c2c(=O)cc(C)oc2c1Br	70.37	29.3	67	25.4	63.8	0.08
COc1cc(/C=C/C(=O)CC(=O)/C=C/c2ccc(O)c(OC)c2)ccc1O					59	
COc1cc2oc(C)cc(=O)c2c(OC(=O)c2ccccc2)c1OC			68.1		45.8	
COc1c(OC)c(O)c2c(=O)cc(C)oc2c1I			37.7		57.2	
COc1cc2oc(C)cc(=O)c2c(OCc2ccccc2)c1OC			48.1		63.4	
COc1cc2oc(C)cc(=O)c2c(OC(C)=O)c1OC			46.2		59	
CCCOc1c(OC)c(OC)cc2oc(C)cc(=O)c12			48.4		40.2	
CCCCOc1c(OC)c(OC)cc2oc(C)cc(=O)c12			52.5		28.4	
COc1cc2oc(C)cc(=O)c2c(O)c1OC [STELLATIN]	69.44	22.3	80.2	19.7	71.5	0.082
COc1ccc2c(c1)c(CC(=O)O)c(C)n2C(=O)c1ccc(Cl)cc1 [INDOMETHACIN]	81.48					0.05
COc1cc2oc(C)cc(=O)c2c(O)c1O	78.4	19.8	85	15.4	78.1	0.058
C=CCOc1c(OC)cc2oc(C)cc(=O)c2c1O	71.3	26	81.5	18	68.3	0.077
